Activity calls are given as the source filed them.
Experiments:
Phospholipase A2 = Phospholipase A2 (Homo sapiens, UniProt P04054); format: functional;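 also: confirmatory dose-response counterscreen on phospholipase A2, testing hits that came from an ultra-high-throughput screen for ATG4B inhibitors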
[1] = molecular target: T1, High affinity choline transporter 1 (Homo sapiens, UniProt Q9GZV3); experiment: human choline transporter blockers, potency – cell-based, 5-point CRC, membrane potential dye, dose response (AID 504840); format: functional
T1 sequence (Q9GZV3 whole entry): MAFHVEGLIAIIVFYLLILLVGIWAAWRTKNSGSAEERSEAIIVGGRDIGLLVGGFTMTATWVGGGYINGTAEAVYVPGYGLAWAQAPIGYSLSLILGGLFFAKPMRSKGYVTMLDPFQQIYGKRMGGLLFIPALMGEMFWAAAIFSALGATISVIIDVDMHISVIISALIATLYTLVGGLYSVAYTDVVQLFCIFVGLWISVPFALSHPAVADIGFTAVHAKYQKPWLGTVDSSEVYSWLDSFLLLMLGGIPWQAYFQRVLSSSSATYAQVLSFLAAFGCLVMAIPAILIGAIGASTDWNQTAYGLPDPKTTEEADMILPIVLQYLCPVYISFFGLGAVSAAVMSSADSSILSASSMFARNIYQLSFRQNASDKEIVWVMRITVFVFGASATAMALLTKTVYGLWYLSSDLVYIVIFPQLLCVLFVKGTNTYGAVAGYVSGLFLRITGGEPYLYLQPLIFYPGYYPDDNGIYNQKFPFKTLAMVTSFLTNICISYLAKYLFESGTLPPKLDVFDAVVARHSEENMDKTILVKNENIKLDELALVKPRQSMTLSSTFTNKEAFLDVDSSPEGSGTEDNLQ

Cysteine protease ATG4B = molecular target: T2, Cysteine protease ATG4B (Homo sapiens, UniProt Q9Y4P1); format: functional;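 also: Fluorescence-based dose-response confirmation assay measuring inhibition of ATG4B activity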
T2 sequence (Q9Y4P1 whole entry): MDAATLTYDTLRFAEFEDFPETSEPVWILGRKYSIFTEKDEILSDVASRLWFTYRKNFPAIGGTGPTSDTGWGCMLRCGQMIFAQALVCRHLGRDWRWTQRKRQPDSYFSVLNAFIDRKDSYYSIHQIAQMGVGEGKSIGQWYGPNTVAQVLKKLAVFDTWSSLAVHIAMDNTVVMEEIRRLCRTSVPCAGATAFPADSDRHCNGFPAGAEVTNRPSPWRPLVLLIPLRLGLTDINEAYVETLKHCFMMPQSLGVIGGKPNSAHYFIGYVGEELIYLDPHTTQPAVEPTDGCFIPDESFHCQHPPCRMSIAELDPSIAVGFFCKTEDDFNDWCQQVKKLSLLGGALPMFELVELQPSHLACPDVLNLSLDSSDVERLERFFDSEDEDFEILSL

P388 = experiment: cells; format: functional; conditions: Mus musculus
P388/ADR = experiment: cells; format: functional; conditions: Mus musculus
SN12K1 = experiment: cells; format: functional; conditions: Homo sapiens
[2] = molecular target: T3, Short transient receptor potential channel 4 (Mus musculus, UniProt Q9QUQ5); experiment: calcium entry via TRPC4 opening agents – cell-based, HEK293 TRPC4/mu-opioid, Fluo-4 calcium, dose response (AID 434937); format: functional
T3 sequence (Q9QUQ5 whole entry): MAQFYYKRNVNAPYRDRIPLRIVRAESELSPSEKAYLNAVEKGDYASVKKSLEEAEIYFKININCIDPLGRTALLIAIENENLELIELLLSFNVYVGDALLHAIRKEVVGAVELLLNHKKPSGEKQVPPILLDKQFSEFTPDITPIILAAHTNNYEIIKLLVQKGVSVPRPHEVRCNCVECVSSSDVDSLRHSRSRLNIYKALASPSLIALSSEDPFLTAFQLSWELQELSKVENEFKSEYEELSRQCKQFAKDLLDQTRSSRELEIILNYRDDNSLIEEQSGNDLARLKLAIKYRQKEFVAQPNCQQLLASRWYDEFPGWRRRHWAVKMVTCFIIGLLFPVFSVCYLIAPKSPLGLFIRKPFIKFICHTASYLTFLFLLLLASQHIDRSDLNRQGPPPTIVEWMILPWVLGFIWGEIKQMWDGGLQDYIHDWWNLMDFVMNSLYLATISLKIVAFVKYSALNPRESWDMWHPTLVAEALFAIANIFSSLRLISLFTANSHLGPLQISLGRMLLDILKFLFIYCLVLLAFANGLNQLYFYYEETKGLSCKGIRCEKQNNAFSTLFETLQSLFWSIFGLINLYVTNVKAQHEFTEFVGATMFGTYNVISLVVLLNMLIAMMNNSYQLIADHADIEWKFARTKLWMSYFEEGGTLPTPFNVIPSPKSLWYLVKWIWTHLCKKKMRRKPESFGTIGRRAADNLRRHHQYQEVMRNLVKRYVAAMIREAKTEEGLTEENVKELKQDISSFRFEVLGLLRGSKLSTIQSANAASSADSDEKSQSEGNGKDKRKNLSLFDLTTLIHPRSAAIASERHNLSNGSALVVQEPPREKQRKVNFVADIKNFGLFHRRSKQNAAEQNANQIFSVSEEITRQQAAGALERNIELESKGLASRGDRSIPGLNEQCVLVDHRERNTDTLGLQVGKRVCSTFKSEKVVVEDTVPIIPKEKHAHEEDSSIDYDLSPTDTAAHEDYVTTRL

[3] = molecular target: T4, Carboxy-terminal domain RNA polymerase II polypeptide A small phosphatase 1 (Homo sapiens, UniProt Q9GZU7); experiment: CTDSP1 inhibitors, concentration-response, biochemical, absorbance readout, ultra-high-throughput screen actives (AID 540297); format: functional
T4 sequence (Q9GZU7 whole entry): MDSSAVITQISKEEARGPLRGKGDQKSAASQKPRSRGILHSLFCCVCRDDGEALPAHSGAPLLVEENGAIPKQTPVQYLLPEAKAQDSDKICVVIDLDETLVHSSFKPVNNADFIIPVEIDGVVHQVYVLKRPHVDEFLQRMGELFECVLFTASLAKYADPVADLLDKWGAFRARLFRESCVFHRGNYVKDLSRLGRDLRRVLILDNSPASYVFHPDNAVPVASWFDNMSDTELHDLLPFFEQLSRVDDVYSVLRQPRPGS

[4] = molecular target: Heat shock protein HSP 90-alpha (Homo sapiens, UniProt P07900); format: functional, organism-based
[5] = molecular target: T5, Zinc finger protein mex-5 (Caenorhabditis elegans, UniProt Q9XUB2); experiment: potency of MEX-5 RNA-binding blockers – biochemical, C. elegans, fluorescence polarization, dose response (AID 1960)
T5 sequence (Q9XUB2 whole entry): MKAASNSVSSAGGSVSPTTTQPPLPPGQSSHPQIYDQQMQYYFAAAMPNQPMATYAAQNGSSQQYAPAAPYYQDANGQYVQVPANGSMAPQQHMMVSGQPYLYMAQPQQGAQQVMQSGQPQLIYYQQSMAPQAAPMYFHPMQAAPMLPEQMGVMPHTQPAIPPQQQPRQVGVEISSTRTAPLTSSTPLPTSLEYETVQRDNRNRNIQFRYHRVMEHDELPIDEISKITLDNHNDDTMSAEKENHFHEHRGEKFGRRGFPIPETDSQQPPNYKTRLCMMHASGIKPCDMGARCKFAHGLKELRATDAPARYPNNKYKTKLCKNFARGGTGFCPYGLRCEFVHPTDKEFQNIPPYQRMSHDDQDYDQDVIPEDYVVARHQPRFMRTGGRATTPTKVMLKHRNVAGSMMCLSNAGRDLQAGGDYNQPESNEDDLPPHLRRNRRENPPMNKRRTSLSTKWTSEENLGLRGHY

[6] = molecular target: T6, RNA-binding protein pos-1 (Caenorhabditis elegans, UniProt G5EF15); experiment: disruptors of C. elegans POS-1 RNA interaction – biochemical, fluorescence polarization, dose response (AID 1964);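 also: purified POS-1 fused to maltose binding protein made in E. coli; potency of compounds blocking POS-1 binding to fluorescent RNA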
T6 sequence (G5EF15 whole entry): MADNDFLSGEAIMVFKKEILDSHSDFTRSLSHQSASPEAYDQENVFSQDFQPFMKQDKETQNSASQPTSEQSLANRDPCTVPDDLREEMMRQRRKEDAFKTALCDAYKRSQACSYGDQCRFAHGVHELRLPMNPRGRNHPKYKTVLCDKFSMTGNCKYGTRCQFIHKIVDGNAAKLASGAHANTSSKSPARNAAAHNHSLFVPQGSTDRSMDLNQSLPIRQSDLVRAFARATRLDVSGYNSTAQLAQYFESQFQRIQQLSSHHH

Cytochrome P450 2C19 = Cytochrome P450 2C19 (Homo sapiens, UniProt P33261); experiment: Cytochrome panel assay with activity outcomes. Panel member name: p450-cyp2c19 Compounds with AC50 equal or less than 10 uM are considered active; format: functional; conditions: read-out: AC50
Sequence of Cytochrome P450 2C19 (P33261 whole entry): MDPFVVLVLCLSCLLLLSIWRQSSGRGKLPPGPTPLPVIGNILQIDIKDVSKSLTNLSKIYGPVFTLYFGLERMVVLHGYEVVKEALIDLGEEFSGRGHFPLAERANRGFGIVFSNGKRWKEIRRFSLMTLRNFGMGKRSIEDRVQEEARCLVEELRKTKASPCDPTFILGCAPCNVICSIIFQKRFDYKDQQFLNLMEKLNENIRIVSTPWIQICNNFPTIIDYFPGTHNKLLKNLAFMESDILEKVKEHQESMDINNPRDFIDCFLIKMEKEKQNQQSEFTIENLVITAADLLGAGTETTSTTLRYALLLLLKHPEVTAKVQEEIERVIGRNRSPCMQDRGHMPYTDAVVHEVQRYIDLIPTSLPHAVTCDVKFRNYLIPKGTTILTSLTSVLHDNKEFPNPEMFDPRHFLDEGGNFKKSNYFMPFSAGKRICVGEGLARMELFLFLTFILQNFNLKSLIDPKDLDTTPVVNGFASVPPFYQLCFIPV

Cytochrome P450 1A2 = molecular target: T7, Cytochrome P450 1A2 (Homo sapiens, UniProt P05177);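 also: PubChem cytochrome P450 panel assay, CYP1A2 panel member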
T7 sequence (P05177 whole entry): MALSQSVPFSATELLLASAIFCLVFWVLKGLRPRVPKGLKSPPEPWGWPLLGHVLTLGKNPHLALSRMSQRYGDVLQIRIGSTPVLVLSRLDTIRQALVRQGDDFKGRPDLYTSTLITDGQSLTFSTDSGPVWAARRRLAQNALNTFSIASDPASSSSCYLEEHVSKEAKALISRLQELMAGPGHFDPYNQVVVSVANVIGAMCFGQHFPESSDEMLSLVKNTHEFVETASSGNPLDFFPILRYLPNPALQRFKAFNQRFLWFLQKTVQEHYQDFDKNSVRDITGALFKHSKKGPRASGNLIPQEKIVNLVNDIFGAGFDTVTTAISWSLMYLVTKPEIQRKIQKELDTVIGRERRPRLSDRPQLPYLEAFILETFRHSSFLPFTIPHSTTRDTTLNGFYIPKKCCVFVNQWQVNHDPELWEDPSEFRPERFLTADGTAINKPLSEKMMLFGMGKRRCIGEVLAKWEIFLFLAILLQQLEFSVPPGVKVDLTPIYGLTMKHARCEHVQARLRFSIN

Sequence of Phospholipase A2 (P04054 whole entry): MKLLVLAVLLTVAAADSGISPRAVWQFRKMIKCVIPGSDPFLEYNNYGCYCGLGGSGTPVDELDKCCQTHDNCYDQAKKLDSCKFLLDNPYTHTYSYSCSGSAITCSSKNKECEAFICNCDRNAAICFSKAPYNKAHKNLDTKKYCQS

How did the IC50 (Phospholipase A2) turn out when `Oc1c(Cl)cc(Cl)cc1/C=N/c1ccc2c(c1)OCCO2` was run?
The IC50 was 11.2 µM (active).

What about the IC50 [1] of the same molecule?
Its IC50 is 10 µM (active).

What about the IC50 (Cysteine protease ATG4B) of the same molecule?
The IC50 was 7.3 µM (active).

Which results are given for `CC12CCC(C(=O)N3CC=CCC3)(OC1=O)C2(C)C` (stereo unspecified)?
GI50 (P388): > 100 µM (inactive); GI50 (P388/ADR): > 100 µM (inactive); GI50 (SN12K1): > 100 µM (inactive)

For `COc1ccc(C(CNC(=O)c2cc(C)on2)N(C)C)cc1` (stereo unspecified), which EC50 [2] is on record?
The EC50 was 0.376 µM (active).

Which IC50 [3] does the source give for `CCOC(=O)C1=C(C)N=c2s/c(=C\c3cccc(OCC(=O)O)c3)c(=O)n2C1c1ccccc1OC` (stereo unspecified) here?
Its IC50 is 4.32 µM (active).

`O=C(c1ccc(Cl)cc1)N1CCN(c2ccc(F)cc2)CC1` was tested. Which AC50 [4] did it give?
Its AC50 is 5.2 µM (active).

`COC(=O)c1ccc(/N=N/N(C)COc2ccc(Br)cc2)cc1` was tested. Which GI50 (P388) did it give?
Its GI50 is 27 µM (inactive).

And the GI50 (P388/ADR)?
Its GI50 is 32.8 µM (inactive).

What about the GI50 (SN12K1) of the same molecule?
The GI50 was > 66.8 µM (inactive).

For `Cc1cccc(N2CCN(C(=O)C3CCN(c4ncnc5c4nc4n5CCCCC4)CC3)CC2C)c1` (stereo unspecified), which IC50 (Phospholipase A2) is on record?
Its IC50 is 11.1 µM (active).

And the IC50 (Cysteine protease ATG4B)?
Its IC50 is 15.3 µM (active).

With `CCCC(=O)OCC1OC(n2ccc(N)nc2=O)C(OC(=O)CCC)C1OC(=O)CCC` (stereo unspecified) as the molecule, how does the GI50 (P388) read?
The GI50 was 0.2 µM (active).

And the GI50 (P388/ADR)?
Its GI50 is 11.1 µM (inactive).

What about the GI50 (SN12K1) of the same molecule?
Its GI50 is 1.86 µM (inactive).

How did the GI50 (P388) turn out when `O/N=N/c1cnccn1` was run?
Its GI50 is > 721 µM (inactive).

What about the GI50 (P388/ADR) of the same molecule?
Its GI50 is 668 µM (inactive).

And the GI50 (SN12K1)?
Its GI50 is 1070 µM (inactive).

`CC(C)Cc1ccc(C(C)C(=O)N2CCN(/C=C/c3ccccc3)CC2)cc1` (stereo unspecified) was tested. Which GI50 (P388) did it give?
Its GI50 is 7.35 µM (inactive).

What about the GI50 (P388/ADR) of the same molecule?
The GI50 was 10.9 µM (inactive).

What about the GI50 (SN12K1) of the same molecule?
Its GI50 is 13.7 µM (inactive).

Which IC50 [3] does the source give for `CSc1nc2nccc(-c3ccc(Cl)cc3)n2n1` here?
Its IC50 is 11.3 µM (active).

`O=C(N/N=C/c1cccn1-c1cccc(C(=O)O)c1)Nc1ccccc1` was tested. Which EC50 [5] did it give?
The EC50 was > 300 µM (not active).

What about the IC50 [3] of the same molecule?
Its IC50 is 8.69 µM (active).

And the EC50 [6]?
Its EC50 is > 300 µM (not active).

For `CCCCCN1CC(=O)C(c2nc(-c3ccc(Cl)cc3)cs2)=C1N`, which IC50 [3] is on record?
Its IC50 is 5.38 µM (active).

What about the AC50 (Cytochrome P450 2C19) of the same molecule?
Its AC50 is 1.12 µM (inconclusive).

What about the AC50 (Cytochrome P450 1A2) of the same molecule?
The AC50 was 1.58 µM (inconclusive).

`CC(=O)Nc1ccc(CN2CCCC(C(=O)c3ccc(C(F)(F)F)cc3)C2)cc1` (stereo unspecified) was tested. Which EC50 [2] did it give?
The EC50 was 2.66 µM (active).

For `Cc1ccc2nc(N/N=C/c3ccccc3F)nc(-c3ccccc3)c2c1`, which IC50 (Phospholipase A2) is on record?
The IC50 was 9.15 µM (active).

What about the IC50 (Cysteine protease ATG4B) of the same molecule?
The IC50 was 17.9 µM (active).

With `C=CCn1c(SCc2nc3scc(-c4ccccc4)c3c(=O)[nH]2)nnc1-c1ccccc1F` as the molecule, how does the IC50 (Phospholipase A2) read?
Its IC50 is 12.1 µM (active).

And the IC50 (Cysteine protease ATG4B)?
The IC50 was 15.9 µM (active).

Which AC50 [4] does the source give for `O=C(/C=C/c1ccnc2ccccc12)c1cccs1` here?
Its AC50 is 5.63 µM (active).

`COc1ccc(C(CNC(=O)C2CCN(S(=O)(=O)c3ccc(F)cc3)CC2)N(C)C)cc1` (stereo unspecified) was tested. Which EC50 [2] did it give?
Its EC50 is 2.11 µM (active).

With `O=c1c(Cc2ccc(F)cc2)c(O)ccn1CCc1c[nH]cn1` as the molecule, how does the EC50 [2] read?
The EC50 was 5.31 µM (active).

Which results are given for `O=C[C@@H](CO)O[C@H](C=O)c1c[nH]c(=O)[nH]c1=O`?
GI50 (P388): > 80.7 µM (inactive); GI50 (P388/ADR): 38.1 µM (inactive); GI50 (SN12K1): 76.6 µM (inactive)
